Data reported in US20230293599A1, “BACTERIAL COMPOSITIONS WITH ANTI-INFLAMMATORY ACTIVITY” (Universiteit Gent, priority 2020, published 2023).
Like-named read-outs stand apart in the source and are kept apart here. Residues, ends and D or L forms follow the SMILES beside them.

Experiments:
S. aureus = type: cell-based, Staphylococcus aureus
Description: (§1) Using Phenotype Microarray (PM) panels (Biolog), the influence of 190 carbon sources on the growth of the potential probiotic species R. mucilaginosa, R. dentocariosa, R. gilardii, G. haemolysans, and common respiratory pathogens P. aeruginosa, and S. aureus was determined. PM1 and PM2 panels (Biolog) were inoculated according to the manufacturer's instructions. Growth curves were generated for 35 hours by measuring the absorbance at 590 nm using an EnVision (Perkin Elmer) plate reader.

G. haemolysans = assay: Biolog Phenotype Microarray PM1-2 growth on carbon sources; type: cell-based, Gemella haemolysans; conditions: for growth of G. haemolysans on the carbon source (in words): AUC lower than 50 = not supporting growth
Description: as §1

R. dentocariosa = assay: as above; type: cell-based, Rothia dentocariosa; conditions: for growth of R. dentocariosa on the carbon source (in words): AUC lower than 50 = not supporting growth
Description: as §1

P. aeruginosa = assay: as above; type: cell-based, Pseudomonas aeruginosa; conditions: for growth of P. aeruginosa on the carbon source (in words): AUC lower than 50 = not supporting growth
Description: as §1

R. gilardii = assay: as above; type: cell-based, Roseomonas gilardii
Description: as §1

R. mucilaginosa = assay: as above; type: cell-based, Rothia mucilaginosa; conditions: for growth of R. mucilaginosa on the carbon source (in words): AUC lower than 50 = not supporting growth
Description: as §1

[1] = 35 hours, absorbance 590 nm, n = 1, cells without values AUC < 50

Row | Compound | AUC of growth curve, S. aureus (S. aureus) | AUC of growth curve, G. haemolysans (G. haemolysans; [1]) | AUC of growth curve, R. dentocariosa (R. dentocariosa; [1]) | AUC of growth curve, P. aeruginosa (P. aeruginosa; [1]) | AUC of growth curve, R. gilardii (R. gilardii; [1]) | AUC of growth curve, R. mucilaginosa (R. mucilaginosa; [1]) | also measured
1 | CC(O)C(C)O (stereo not drawn) [2,3-Butanediol] | 147.2 | 145.4 | – | – | – | – | –
2 | O=CC[C@H](O)[C@H](O)CO [2-Deoxy-D-Ribose] | 580.2 | 180.3 | 376.6 | 529.9 | 366.7 | – | –
3 | O=C(CO)[C@@H](O)[C@H](O)[C@@H](O)C(=O)O [5-Keto-D-Gluconic Acid] | 432.1 | – | – | – | – | – | AUC of growth curve, R. dentocariosa (R. dentocariosa): 277.0; AUC of growth curve, P. aeruginosa (P. aeruginosa): 1312.5; AUC of growth curve, R. gilardii (R. gilardii): 423.9; AUC of growth curve, G. haemolysans (G. haemolysans): 122.8
4 | CC(=O)CC(=O)O [Acetoacetic Acid] | 928.3 | – | 229.8 | 301.3 | 172.4 | 301.4 | –
5 | Nc1ncnc2c1ncn2[C@@H]1O[C@H](CO)[C@@H](O)[C@H]1O [Adenosine] | 472.6 | 65.6 | – | 398.1 | – | – | –
6 | O=C[C@@H](O)[C@H](O)[C@H](O)CO [D-Arabinose] | 705.0 | 88.1 | 305.6 | 763.4 | 356.3 | – | –
7 | O=C(CO)[C@@H](O)[C@H](O)[C@H](O)COP(=O)(O)O [D-Fructose-6-Phosphate] | 437.8 | 134.2 | 87.1 | 783.8 | – | 127.5 | –
8 | O=C[C@H](O)[C@@H](O)[C@@H](O)[C@H](O)CO [D-Galactose] | 834.0 | – | 533.6 | 720.0 | 186.6 | 101.1 | –
9 | N[C@H]1C(O)O[C@H](CO)[C@@H](O)[C@@H]1O (stereo partly drawn) [D-Glucosamine] | 884.6 | 618.4 | 200.6 | 840.0 | 196.5 | – | –
10 | O=C[C@@H](O)[C@@H](O)[C@H](O)[C@H](O)CO [D-Mannose] | 729.5 | 218.6 | 106.1 | 495.0 | – | 1017.6 | –
11 | O=C(CO)[C@H](O)[C@H](O)[C@H](O)CO [D-Psicose] | 698.5 | – | – | – | – | – | AUC of growth curve, R. dentocariosa (R. dentocariosa): 428.2; AUC of growth curve, R. mucilaginosa (R. mucilaginosa): 436.4; AUC of growth curve, P. aeruginosa (P. aeruginosa): 771.3; AUC of growth curve, R. gilardii (R. gilardii): 86.7
12 | OCC(O)CO [Glycerol] | 802.4 | – | 998.9 | 78.3 | 59.0 | 786.8 | growth of R. dentocariosa on the carbon source (in words) (R. dentocariosa): allowed growth; growth of R. mucilaginosa on the carbon source (in words) (R. mucilaginosa): allowed growth; growth of P. aeruginosa on the carbon source (in words) (P. aeruginosa): did not support growth
13 | NCC(=O)N[C@@H](CCC(=O)O)C(=O)O [Glycyl-L-Glutamic Acid] (H-Gly-Glu-OH) | 871.5 | – | – | – | – | – | AUC of growth curve, R. mucilaginosa (R. mucilaginosa): 140.3; AUC of growth curve, P. aeruginosa (P. aeruginosa): 285.6; AUC of growth curve, R. gilardii (R. gilardii): 61.5
14 | O=CC(=O)O [Glyoxylic Acid] | – | – | 53.5 | – | 85.2 | 142.0 | –
15 | C[C@H](N)C(=O)NCC(=O)O [L-Alanyl-Glycine] (H-Ala-Gly-OH) | 809.1 | – | – | – | – | – | AUC of growth curve, P. aeruginosa (P. aeruginosa): 180.2; AUC of growth curve, R. gilardii (R. gilardii): 76.2; AUC of growth curve, G. haemolysans (G. haemolysans): 114.6
16 | C[C@H](O)C(=O)O [L-Lactic Acid] | 773.2 | – | 632.8 | 349.6 | 70.3 | 292.5 | –
17 | O=C(O)C[C@H](O)C(=O)O [L-Malic Acid] | 648.8 | 73.9 | – | 808.2 | 202.5 | – | –
18 | N[C@@H](Cc1ccccc1)C(=O)O [L-Phenylalanine] | 167.3 | 64.4 | – | – | – | – | –
19 | COC(=O)C(C)=O [Methyl Pyruvate] | 611.5 | 870.9 | 74.1 | 818.7 | – | – | –
20 | CC(=O)N[C@H]1C(O)O[C@H](CO)[C@@H](O)[C@@H]1O (stereo partly drawn) [N-Acetyl-D-Glucosamine] | 643.5 | 711.9 | – | – | – | – | growth of P. aeruginosa on the carbon source (in words) (P. aeruginosa): did not support growth; growth of G. haemolysans on the carbon source (in words) (G. haemolysans): supported growth
21 | CC(=O)N[C@H]1[C@@H](O)[C@H](O)[C@@H](CO)O[C@H]1O [N-Acetyl-β-D-Mannosamine] | 738.3 | 375.8 | – | – | – | – | growth of P. aeruginosa on the carbon source (in words) (P. aeruginosa): did not support growth; growth of G. haemolysans on the carbon source (in words) (G. haemolysans): supported growth
22 | O=C(O)[C@]1(O)C[C@@H](O)[C@@H](O)[C@H](O)C1 [Quinic Acid] | 255.3 | – | – | 1197.1 | 92.0 | 68.3 | –
23 | C/C=C/C=C/C(=O)O [Sorbic Acid] | 495.2 | 90.3 | 82.4 | – | 56.2 | – | –
24 | O=C(CO)[C@@H](O[C@H]1O[C@H](CO)[C@@H](O)[C@H](O)[C@H]1O)[C@H](O)[C@H](O)CO [Turanose] | 1146.9 | – | 296.1 | – | – | 91.9 | growth of R. dentocariosa on the carbon source (in words) (R. dentocariosa): stimulated only the growth; growth of P. aeruginosa on the carbon source (in words) (P. aeruginosa): did not support growth
25 | CO[C@@H]1O[C@H](CO)[C@@H](O)[C@H](O)[C@H]1O [β-Methyl-D-Glucoside] | 779.9 | – | 405.7 | – | 56.3 | 599.6 | growth of R. dentocariosa on the carbon source (in words) (R. dentocariosa): allowed growth; growth of R. mucilaginosa on the carbon source (in words) (R. mucilaginosa): allowed growth; growth of P. aeruginosa on the carbon source (in words) (P. aeruginosa): did not support growth
26 | Dextrin | – | 66.1 | 135.6 | – | – | – | growth of R. dentocariosa on the carbon source (in words) (R. dentocariosa): stimulated only the growth; growth of P. aeruginosa on the carbon source (in words) (P. aeruginosa): did not support growth; AUC of growth curve, S. aureus (S. aureus; [1]): 908.1
27 | Maltotriose | 943.9 | – | 1276.1 | – | 54.2 | 1074.7 | growth of R. dentocariosa on the carbon source (in words) (R. dentocariosa): allowed growth; growth of R. mucilaginosa on the carbon source (in words) (R. mucilaginosa): allowed growth; growth of P. aeruginosa on the carbon source (in words) (P. aeruginosa): did not support growth
28 | Tween 40 | 154.9 | 101.2 | – | – | – | – | –
